The term LD50 denotes the dose at which mortality reaches 50%.

The text below walks through data of patent US4117122A, “11-Aminoalkylmorphanthridin-11-ols” (Richardson-Merrell Inc., priority 1976, dated 1978).

Data set [1] relates to reserpine-induced depression. Description: antagonism of reserpine-induced depression in mice (standard antidepressant test). Particulars: for antidepressant potency relative to imipramine: compared with imipramine; for antagonism of reserpine-induced depression: mice, intraperitoneal doses of 5 to 30 mg/kg. It counts as in vivo. The source says:
(§1) The compounds of the present invention are unique in pharmacologic activity.

Data set [2] is described as follows: oral LD50 in standard animal tests. It is filed as in vivo. Particulars: for LD50: in vivo, standard animal tests, approximately.
Description: as §1

Description in data set [3]: as §1

Molecules are shown by their SMILES.

As to `CN(C)CCCC1(O)c2ccccc2C=Nc2ccccc21` (stereo not shown) [11-(3-Dimethylaminopropyl)morphanthridin-11-ol], in data set [1], the “antidepressant potency relative to imipramine” value was “at least ten times more potent than that of imipramine” and the “antagonism of reserpine-induced depression” value is listed as “antagonize reserpine-induced depression in mice”. Besides, in data set [2], the “oral LD50 compared with imipramine” value is “substantially greater than that of imipramine” and the LD50 was approximately 130 mg/kg. Besides, the anticholinergic activity entry in data set [3] is reported as “no significant anticholinergic activity”.
Consider `CN(C)CCCC1(O)c2ccccc2CNc2ccc(Cl)cc21` (stereo not shown) [2-Chloro-11-(3-dimethylaminopropyl)-5,6-dihydromorphanthridin-11-ol], for which, in data set [1], the “antidepressant potency relative to imipramine” value is given as “at least ten times more potent than that of imipramine” and the “antagonism of reserpine-induced depression” value is listed as “antagonize reserpine-induced depression in mice”. In data set [2], the “oral LD50 compared with imipramine” value is “substantially greater than that of imipramine” and the LD50 is approximately 175 mg/kg. Further, in data set [3], the anticholinergic activity entry is recorded as “no significant anticholinergic activity”.
